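Growth conditions: 96-well plates. Treatment: test compound, 48 hours, 5 concentrations. Analysis: linear interpolation between bracketing concentrations; unreached endpoints set to highest concentration. Abbreviation: GI50, concentration required for 50% inhibition of growth.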 The source made the active and inactive calls. Cut-off read from the data, not from the text of the source: active = GI50 up to about 1.1 µM and inactive = higher.
Key:
Assay in all cases: NCI-60 cell line screen, 48 h
HCC 2998 = system: HCC 2998
SR = system: SR
A549 = system: A549
HT-29 = system: HT-29
786-0 = system: 786-0
SK-MEL-5 = system: SK-MEL-5
M14 = system: M14
SW-620 = system: SW-620
NCI-H226 = system: NCI-H226
PC-3 = system: PC-3
SNB-19 = system: SNB-19
SK-OV-3 = system: SK-OV-3
RPMI-8226 = system: RPMI-8226
U-251 = system: U-251
OVCAR-4 = system: OVCAR-4
NCI-H460 = system: NCI-H460
LOX IMVI = system: LOX IMVI
CCRF-CEM = system: CCRF-CEM
Malme-3M = system: Malme-3M
HOP-92 = system: HOP-92

Measured: GI50

O=C1CC2c3ccccc3CCC2c2ccccc21 (stereo unspecified)
inactive: HCC 2998 21.5 µM | SR 46.7 µM | A549 27.5 µM | HT-29 13.3 µM | 786-0 31.3 µM | SK-MEL-5 11.6 µM | M14 15.7 µM | SW-620 26.5 µM | NCI-H226 12.1 µM | PC-3 26.2 µM | SNB-19 15.1 µM | SK-OV-3 51.2 µM | RPMI-8226 43.5 µM | U-251 34.8 µM | OVCAR-4 > 10 µM | NCI-H460 22.3 µM | LOX IMVI 15.8 µM

O=c1cc(N2CCCC2)[nH]c(=O)n1-c1ccc(Cl)cc1
inactive: HCC 2998 > 100 µM | A549 > 100 µM | CCRF-CEM > 100 µM | HT-29 > 100 µM | Malme-3M > 100 µM | 786-0 > 100 µM | M14 > 100 µM | SW-620 > 100 µM | NCI-H226 > 100 µM | PC-3 > 100 µM | SNB-19 > 100 µM | SK-OV-3 > 100 µM | RPMI-8226 > 100 µM | U-251 > 100 µM | OVCAR-4 > 100 µM | HOP-92 > 100 µM | NCI-H460 > 100 µM | LOX IMVI > 100 µM

C/C=C/[C@@]1(OC(=O)c2ccccc2)C[C@@H]2CCCC[C@@H]21
inactive: HCC 2998 21.1 µM | SR 18.1 µM | A549 18.5 µM | CCRF-CEM 18.3 µM | HT-29 16.3 µM | Malme-3M 17.5 µM | 786-0 17.7 µM | SK-MEL-5 15.9 µM | M14 17.9 µM | SW-620 23 µM | NCI-H226 16.5 µM | PC-3 20 µM | SNB-19 17.3 µM | SK-OV-3 18.5 µM | RPMI-8226 16.6 µM | U-251 16.3 µM | OVCAR-4 17 µM | NCI-H460 18.4 µM | LOX IMVI 21.9 µM

N/N=C1\CCCc2c1no[n+]2[O-]
inactive: HCC 2998 > 100 µM | SR > 100 µM | A549 > 100 µM | CCRF-CEM > 100 µM | HT-29 > 100 µM | Malme-3M > 100 µM | 786-0 > 100 µM | SK-MEL-5 > 100 µM | M14 > 100 µM | SW-620 > 100 µM | NCI-H226 > 100 µM | PC-3 > 100 µM | SNB-19 > 100 µM | SK-OV-3 > 100 µM | RPMI-8226 > 100 µM | U-251 > 100 µM | OVCAR-4 > 100 µM | NCI-H460 > 100 µM | LOX IMVI > 100 µM

COc1cc(C2SC(=N)Nc3c2c(C)nn3C(=O)Cc2ccccc2)cc(OC)c1OC (stereo unspecified)
inactive: HCC 2998 > 100 µM | SR > 100 µM | A549 > 100 µM | CCRF-CEM > 100 µM | HT-29 > 100 µM | 786-0 > 100 µM | SK-MEL-5 > 100 µM | M14 > 100 µM | SW-620 > 100 µM | NCI-H226 > 100 µM | PC-3 > 100 µM | SNB-19 > 100 µM | SK-OV-3 > 100 µM | RPMI-8226 > 100 µM | NCI-H460 > 100 µM | LOX IMVI > 100 µM

O=C(O)C1C2CCC(O2)C1C(=O)Nc1cccc2cccnc12 (stereo unspecified)
inactive: HCC 2998 31.1 µM | SR > 100 µM | A549 > 100 µM | HT-29 > 100 µM | Malme-3M > 100 µM | 786-0 > 100 µM | M14 > 100 µM | SW-620 > 100 µM | PC-3 > 100 µM | SNB-19 > 100 µM | SK-OV-3 > 100 µM | RPMI-8226 > 100 µM | U-251 > 100 µM | OVCAR-4 > 100 µM | NCI-H460 55.5 µM | LOX IMVI > 100 µM

Cn1c2ccccc2c(=O)c2cccc(C(=O)NCC(=O)O)c21
inactive: HCC 2998 > 100 µM | SR > 100 µM | A549 > 100 µM | HT-29 > 100 µM | Malme-3M > 100 µM | 786-0 > 100 µM | SK-MEL-5 > 100 µM | M14 > 100 µM | SW-620 > 100 µM | NCI-H226 85.9 µM | PC-3 > 100 µM | SNB-19 > 100 µM | SK-OV-3 > 100 µM | RPMI-8226 > 100 µM | U-251 > 100 µM | OVCAR-4 > 100 µM | NCI-H460 > 100 µM | LOX IMVI 71.3 µM

CC(C)=CCc1c2c(c3occ(-c4ccc(O)cc4)c(=O)c3c1O)CC(C(C)(C)O)O2 (stereo unspecified) [SENEGALENSIN]
inactive: HCC 2998 11.2 µM | A549 13 µM | CCRF-CEM 17.5 µM | HT-29 12 µM | Malme-3M 21.3 µM | 786-0 16.8 µM | SK-MEL-5 15.2 µM | M14 14.5 µM | SW-620 21.7 µM | NCI-H226 20.3 µM | PC-3 13.8 µM | SNB-19 16.4 µM | SK-OV-3 18.8 µM | RPMI-8226 9.77 µM | U-251 13.2 µM | OVCAR-4 12.9 µM | HOP-92 18 µM | NCI-H460 12.5 µM | LOX IMVI 14.9 µM

Cc1ccc(S(=O)(=O)N/N=C2\C3CC4CC(C3)C2C4)cc1 (stereo unspecified)
inactive: HCC 2998 > 100 µM | SR > 100 µM | A549 > 100 µM | CCRF-CEM > 100 µM | HT-29 > 100 µM | Malme-3M > 100 µM | 786-0 > 100 µM | SK-MEL-5 > 100 µM | M14 > 100 µM | SW-620 > 100 µM | NCI-H226 > 100 µM | PC-3 > 100 µM | SNB-19 > 100 µM | SK-OV-3 > 100 µM | RPMI-8226 > 100 µM | U-251 > 100 µM | OVCAR-4 > 100 µM | NCI-H460 > 100 µM | LOX IMVI > 100 µM

O=C(O)CCC1C(=O)C2CCN1CC2 (stereo unspecified)
inactive: HCC 2998 > 100 µM | SR > 100 µM | A549 > 100 µM | CCRF-CEM > 100 µM | HT-29 > 100 µM | Malme-3M > 100 µM | 786-0 > 100 µM | SK-MEL-5 > 100 µM | M14 > 100 µM | SW-620 > 100 µM | NCI-H226 > 100 µM | PC-3 > 100 µM | SNB-19 > 100 µM | SK-OV-3 > 100 µM | RPMI-8226 > 100 µM | U-251 > 100 µM | OVCAR-4 > 100 µM | NCI-H460 > 100 µM | LOX IMVI > 100 µM

Fc1ccc(C(OCCN2CC3CC2CN3CCCc2ccccc2)c2ccc(F)cc2)cc1 (stereo unspecified)
inactive: HCC 2998 2.38 µM | A549 12 µM | CCRF-CEM 4.52 µM | HT-29 3.85 µM | Malme-3M 2.93 µM | 786-0 5.53 µM | SK-MEL-5 1.84 µM | M14 2.02 µM | SW-620 6.53 µM | NCI-H226 7.23 µM | PC-3 5.98 µM | SNB-19 13.3 µM | SK-OV-3 15 µM | RPMI-8226 2.88 µM | U-251 6.71 µM | OVCAR-4 8.95 µM | HOP-92 11.9 µM | NCI-H460 4.48 µM | LOX IMVI 5.87 µM

NNc1ncnc2cccc(Cl)c12
inactive: HCC 2998 > 100 µM | SR > 100 µM | A549 > 100 µM | CCRF-CEM > 100 µM | HT-29 > 100 µM | Malme-3M 2.02 µM | 786-0 > 100 µM | SK-MEL-5 > 100 µM | M14 > 100 µM | SW-620 > 100 µM | NCI-H226 > 100 µM | PC-3 > 100 µM | SNB-19 > 100 µM | SK-OV-3 > 100 µM | U-251 > 100 µM | OVCAR-4 > 100 µM | NCI-H460 > 100 µM

COC(=O)C1(Cc2ccccc2)Cc2ccccc2C1O (stereo unspecified)
inactive: HCC 2998 > 100 µM | SR 92.9 µM | A549 87.5 µM | CCRF-CEM > 100 µM | HT-29 > 100 µM | Malme-3M > 100 µM | 786-0 > 100 µM | SK-MEL-5 37.3 µM | SW-620 > 100 µM | NCI-H226 > 100 µM | PC-3 > 100 µM | SK-OV-3 > 100 µM | RPMI-8226 > 100 µM | U-251 > 100 µM | OVCAR-4 29.8 µM | NCI-H460 > 100 µM | LOX IMVI > 100 µM

N#CC(CCN1CCC(Nc2ccccc2)(c2nnnn2C2CCCCC2)CC1)(c1ccccc1)c1ccccc1
inactive: HCC 2998 > 100 µM | SR > 100 µM | A549 > 100 µM | CCRF-CEM > 100 µM | HT-29 > 100 µM | Malme-3M > 100 µM | 786-0 > 100 µM | SK-MEL-5 > 100 µM | M14 > 100 µM | SW-620 > 100 µM | NCI-H226 > 100 µM | PC-3 > 100 µM | SNB-19 > 100 µM | SK-OV-3 > 100 µM | RPMI-8226 > 100 µM | U-251 > 100 µM | OVCAR-4 > 100 µM | NCI-H460 > 100 µM | LOX IMVI > 100 µM

CCCC(=O)OCC(COC(=O)CCC)OC(=O)CCC [TRIBUTYRIN]
inactive: HCC 2998 > 100 µM | A549 96.6 µM | CCRF-CEM 46.1 µM | HT-29 > 100 µM | Malme-3M 41.2 µM | 786-0 > 100 µM | SK-MEL-5 41.8 µM | M14 58.5 µM | SW-620 > 100 µM | NCI-H226 > 100 µM | PC-3 99.3 µM | SNB-19 > 100 µM | SK-OV-3 61.2 µM | RPMI-8226 17.1 µM | U-251 53 µM | OVCAR-4 > 100 µM | HOP-92 > 100 µM | NCI-H460 99.8 µM | LOX IMVI 82 µM
